Source: paper PMC9405123, “Design, Synthesis and Mechanistic Studies of Novel Isatin-Pyrazole Hydrazone Conjugates as Selective and Potent Bacterial MetAP Inhibitors” (Antibiotics, 2022)
Converted amounts (≈) assume the structure as drawn.

Columns and labels:
[1] = molecular target: T1, MtMetAP1c (Mycobacterium tuberculosis, UniProt P9WK19); experiment: MetAP enzyme inhibition, Morrison Ki (Met-AMC fluorescence); format: biochemical, M. tuberculosis; settings: Morrison Ki method
T1 construct: made in house
T1 sequence (P9WK19 whole entry): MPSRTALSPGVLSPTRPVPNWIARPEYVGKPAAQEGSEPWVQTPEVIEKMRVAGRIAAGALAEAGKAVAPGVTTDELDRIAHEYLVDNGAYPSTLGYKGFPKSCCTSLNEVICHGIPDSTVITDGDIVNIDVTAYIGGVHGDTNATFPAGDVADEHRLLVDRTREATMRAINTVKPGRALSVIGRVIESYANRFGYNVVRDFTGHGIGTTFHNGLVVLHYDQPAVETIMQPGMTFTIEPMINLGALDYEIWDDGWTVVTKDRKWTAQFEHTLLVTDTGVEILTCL
Method: MetAP appears to serve a vital role in the co- or post-translational modification of proteins, making it essential for bacterial cell metabolism and survival. In this study, all enzymes, which were used for this study, including MtMetAP1c (M. tuberculosis), EfMetAP1a (E. faecalis), SpMetAP1a (S. pneumoniae) and HsMetAP1b (H. sapiens) enzymes, were expressed and purified in our lab as previously reported. All compounds prepared 10 mM stocks in DMSO and were used for enzyme inhibition studies. The concentration of each enzyme is adjusted such that they have similar reaction rates (HsMetAp1b, 1 µM; SpMetAP1a, 5 µM; EfMetAP1a, 1 µM; MtMetAP1c, 1 µM;) as reported earlier. All assays were performed in […] reaction containing 50 mM HEPES (pH 7.5 for SpMetAP1a and HsMetAP1b; 8.0 for EfMetAP1a, MtMetAP1c, […]), 150 mM NaCl, and CoCl2 (three molar equivalents of corresponding enzymes). The reaction was started by adding 50 μM L-Methionine 7-amido-4-methyl coumarin (Met-AMC) and continuously monitoring the fluorescence of released 7-amino-4-methyl coumarin (AMC) (380 nm excitation and 460 nm emission) in a microplate multimode reader (TECAN, Austria). The maximum percentage of inhibition against enzymes is calculated at […] compound concentration. […] The Ki values were determined according to the Morrison method using three different concentrations of substrates and ten different concentrations of the inhibitor. All experiments were performed in triplicate. GraphPad Prism version 8.0.0 (San Diego, CA, USA) was used to determine all the kinetic parameters.

[2] = molecular target: T2, HsMetAP1b (Homo sapiens, UniProt P53582); experiment: as above; format: biochemical, H. sapiens; settings: Morrison Ki method
T2 construct: made in house

[3] = system: P. aeruginosa; experiment: Growth inhibition screening (broth dilution); format: cell-based, Pseudomonas aeruginosa
Method in brief: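 NCCLS broth dilution in nutrient broth with compounds from DMSO at a final 250 µg/mL. About 2.5 × 10^5 cells/mL were inoculated and incubated overnight at 37 °C. Growth was measured as turbidity at 590 nm.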

[4] = system: S. aureus; experiment: Minimum inhibitory concentration (broth dilution); format: cell-based; settings: Staphylococcus aureus, alone
[5] = system: E. coli; experiment: Minimum inhibitory concentration (broth dilution); format: cell-based, Escherichia coli; settings: Escherichia coli, alone, read-out: MIC
[6] = system: E. faecalis; experiment: Minimum bactericidal concentration; format: cell-based, Enterococcus faecalis
[7] = system: E. coli; experiment: Minimum bactericidal concentration; format: cell-based, Escherichia coli
[8] = system: E. coli; experiment: Growth kinetics; format: cell-based, Escherichia coli
Method: (§1) Bacterial strains were tested as mentioned in Habib et al.. Briefly, ½ MIC, MIC and 2MIC values of PS9 were taken to assess the growth of bacterial strains whereas untreated cells and media were taken as positive and negative control, respectively.

[9] = system: P. aeruginosa; experiment: Growth kinetics; format: cell-based, Pseudomonas aeruginosa
Method: as §1

[10] = system: E. faecalis; experiment: Growth kinetics; format: cell-based, Enterococcus faecalis
Method: as §1

[11] = system: E. faecalis; experiment: Time-kill curve assay; format: cell-based, Enterococcus faecalis
Method: A time–kill curve study was performed against bacterial strains (E. coli, E. faecalis, K. pneumonia and P. aeruginosa) to determine whether compound PS9 is bactericidal or bacteriostatic. MIC, 2MIC and 4MIC concentrations were employed for the time–kill assay as explained by Ali et al.. Untreated bacterial cells were used as a control. 100 µL aliquot was taken from each flask at regular intervals. An aliquot was further diluted in phosphate buffer saline solution and from each concentration 50 µL aliquot was inoculated on a nutrient agar plate and spread. Colonies were counted after the incubation of the plate at 37 °C. For each strain, the average (mean) colony count data (log10 CFU/mL) was plotted against time.

[12] = system: HK32; experiment: MBC on environmental MDR isolate; settings: Enterobacter cloacae
[13] = system: SH28; experiment: MBC on environmental MDR isolate; settings: Aeromonas caviae
[14] = system: LG1; experiment: MBC on environmental MDR isolate
[15] = system: K. pneumoniae; experiment: Combination study with AMP or CIP
[16] = system: HK41; experiment: MIC on environmental MDR isolate (microdilution); settings: Enterobacter cloacae
[17] = system: HK91; experiment: MIC on environmental MDR isolate (microdilution); settings: Ralstonia
[18] = system: SH28; experiment: MIC on environmental MDR isolate (microdilution); settings: Aeromonas caviae
[19] = system: LG1; experiment: MIC on environmental MDR isolate (microdilution)
[20] = system: LG24; experiment: MIC on environmental MDR isolate (microdilution); settings: Escherichia coli
[21] = system: LG33; experiment: MIC on environmental MDR isolate (microdilution); settings: Enterobacter
[22] = system: LG51; experiment: MIC on environmental MDR isolate (microdilution); settings: Escherichia coli
[23] = system: LG71; experiment: MIC on environmental MDR isolate (microdilution); settings: isolate LG71 Enterobacter cloacae

O=C1Nc2ccc(F)cc2/C1=N\NC(=O)c1cc(-c2cccc(Br)c2)n[nH]1 [PS9, (E)-3-(3-Bromophenyl)-N′-(5-Fluoro-2-Oxoindolin-3-Ylidene)-1H-Pyrazole-5-Carbohydrazide]
Ki [1]: 0.31 µM | Ki [2]: 632 ± 16.3 µM | inhibition at 250 µg/mL ([3]; Pseudomonas aeruginosa): ≥ 94% | % Growth Inhibition at 250 µg/mL ([3]; listed as C00009): 100% | MIC [4]: 32 µg/mL (≈ 74.7 µM) | MIC [5]: 16 µg/mL (≈ 37.4 µM) | MBC/MIC Ratio (R*) [6]: 4 | MBC ([6]; Enterococcus faecalis): 32 µg/mL (≈ 74.7 µM) | MBC/MIC Ratio (R*) [7]: 4 | MBC ([7]; Escherichia coli): 64 µg/mL (≈ 149 µM) | growth ([8]; 2MIC and MIC): no growth observed up to 24 h | time after inoculation at which log phase was observed ([8]; ½ MIC): 6 h | growth ([9]; 2MIC and MIC): no growth observed up to 24 h | time after inoculation at which log phase was observed ([9]; ½ MIC): 8 h | growth ([10]; 2MIC): no growth was observed in both cultures at 2MIC concentration till 24 h | growth ([10]; MIC): no significant growth was found at MIC up to 10 h | killing (log10 CFU/mL with time) ([11]; 4MIC, after 16 h): significant eradication | killing (log10 CFU/mL with time) ([11]; MIC, till 16 h): no 100% eradication | MBC [12]: 64 µg/mL (≈ 149 µM) | MBC [13]: 512 µg/mL (≈ 1200 µM) | MBC [14]: 128 µg/mL (≈ 299 µM) | MIC in Combination ([15]; combination PS9 + AMP): 2 µg/mL | MIC in Combination ([15]; combination PS9 + CIP): 4 µg/mL | FICI ([15]; combination with AMP): 0.50 | FICI ([15]; combination with CIP): 0.50 | MIC [16]: 32 µg/mL (≈ 74.7 µM) | MIC [17]: 2 µg/mL (≈ 4.67 µM) | MIC [18]: 128 µg/mL (≈ 299 µM) | MIC [19]: 32 µg/mL (≈ 74.7 µM) | MIC [20]: > 1020 µg/mL | MIC [21]: 1000 µg/mL (≈ 2340 µM) | MIC [22]: 1000 µg/mL (≈ 2340 µM) | MIC ([23]; Enterobacter cloacae): 1020 µg/mL (≈ 2390 µM) | MIC [23]: >1024 µg/mL
